According to patent US6335443B1, “Chemical synthesis of exochelins” (Keystone Biomedical, Inc., priority 1998, dated 2002):

Target: 40% iron-saturated human transferrin (Homo sapiens, UniProt P02787)
Test: Capacity to remove iron from 40% iron-saturated human transferrin
Type: biochemical

Chain of 40% iron-saturated human transferrin (P02787 20-698): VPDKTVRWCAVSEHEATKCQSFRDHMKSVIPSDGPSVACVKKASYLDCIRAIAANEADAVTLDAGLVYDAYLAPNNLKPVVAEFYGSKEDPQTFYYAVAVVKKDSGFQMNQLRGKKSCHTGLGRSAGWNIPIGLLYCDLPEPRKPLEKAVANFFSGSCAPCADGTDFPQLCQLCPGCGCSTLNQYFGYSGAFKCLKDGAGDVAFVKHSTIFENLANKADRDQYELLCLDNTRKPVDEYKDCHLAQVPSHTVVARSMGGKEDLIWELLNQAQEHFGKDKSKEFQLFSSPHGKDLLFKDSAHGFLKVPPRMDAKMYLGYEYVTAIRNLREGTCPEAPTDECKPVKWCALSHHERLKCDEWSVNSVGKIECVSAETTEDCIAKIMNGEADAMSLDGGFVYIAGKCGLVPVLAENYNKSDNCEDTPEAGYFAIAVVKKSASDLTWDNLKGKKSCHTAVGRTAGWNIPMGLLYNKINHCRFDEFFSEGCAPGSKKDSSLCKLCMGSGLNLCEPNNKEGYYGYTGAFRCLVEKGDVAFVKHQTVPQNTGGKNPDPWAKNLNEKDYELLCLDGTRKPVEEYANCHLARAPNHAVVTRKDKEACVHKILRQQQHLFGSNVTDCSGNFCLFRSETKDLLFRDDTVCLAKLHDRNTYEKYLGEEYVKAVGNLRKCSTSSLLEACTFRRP

Iron-Saturation 0 h (Fe3+:desferri-Exochelin 10:1, PBS pH 7.4, listed as Synthetic Desferri-Exochelin 772SM(R)) [%] | Iron-Saturation 0 h (Fe3+:desferri-Exochelin 10:1, PBS pH 7.4, listed as Synthetic Desferri-Exochelin 772SM(S)) [%] | Compound
1.1 | – | COC(=O)CCCCCC(=O)N(O)CCCCC(NC(=O)C1COC(c2ccccc2O)=N1)C(=O)OC(C)CC(=O)NC1CCCCN(O)C1=O [Synthetic 772SM(R), Exochelin 772SM(R)]
– | 1.0 | COC(=O)CCCCCC(=O)N(O)CCCCC(NC(=O)C1COC(c2ccccc2O)=N1)C(=O)OC(C)CC(=O)NC1CCCCN(O)C1=O [Synthetic 772SM(S), Exochelin 772SM(S)]
